# Reference: ChEMBL document CHEMBL4706752 (ACS Med Chem Lett, 2021)
# Experiments:
# [1] = Tmax in cynomolgus monkey at 2 mg/kg, po; format: ADME, organism-based, Macaca fascicularis; conditions: in vivo
# [2] = Decrease in IL-17a gene expression in C57BL/6 mouse model of IL-23 induced acanthosis model of psoriasis at 5 mg/kg, po BID for 10 days by RT-PCR analysis; format: functional; conditions: C57BL/6, po, 240 h, time 10 day
# Cytochrome P450 2C9 = Cytochrome P450 2C9 (Homo sapiens, UniProt P11712); assay: Inhibition of CYP2C9 (unknown origin); format: ADME
# [3] = Clearance in dog at 1 mg/kg, iv; format: ADME, organism-based, Canis lupus familiaris; conditions: in vivo
# [4] = AUC in Sprague-Dawley rat at 4 mg/kg, po; format: ADME, organism-based; design: dose 4 mg/kg; conditions: in vivo
# [5] = Metabolic stability in human liver microsomes assessed as compound remaining after 10 mins; format: ADME, Microsome; conditions: read-out: Stabilty
# [6] = Protein binding in human serum assessed as fraction unbound; format: ADME, cell-free; conditions: read-out: PB
# [7] = AUC in cynomolgus monkey at 1 mg/kg, iv; format: ADME, organism-based, Macaca fascicularis; design: dose 1 mg/kg; conditions: in vivo
# [8] = Oral bioavailability in cynomolgus monkey at 2 mg/kg; format: ADME, organism-based, Macaca fascicularis; conditions: in vivo
# [9] = target: T1, Nuclear receptor ROR-beta (Homo sapiens, UniProt Q92753); assay: Inhibition of RORbeta (unknown origin)
# T1 sequence (Q92753 whole entry): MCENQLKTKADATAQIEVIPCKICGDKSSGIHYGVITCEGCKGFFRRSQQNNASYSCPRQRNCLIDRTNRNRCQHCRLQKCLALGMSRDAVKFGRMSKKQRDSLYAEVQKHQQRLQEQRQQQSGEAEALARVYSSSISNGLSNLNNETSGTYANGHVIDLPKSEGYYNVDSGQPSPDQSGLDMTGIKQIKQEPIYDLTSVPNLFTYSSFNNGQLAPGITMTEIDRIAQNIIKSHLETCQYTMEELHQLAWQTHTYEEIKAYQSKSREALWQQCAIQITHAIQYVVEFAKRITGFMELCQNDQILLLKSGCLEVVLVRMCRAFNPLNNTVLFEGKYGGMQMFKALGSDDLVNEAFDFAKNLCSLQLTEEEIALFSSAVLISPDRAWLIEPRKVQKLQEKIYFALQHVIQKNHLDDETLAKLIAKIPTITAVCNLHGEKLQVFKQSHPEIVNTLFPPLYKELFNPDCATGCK
# [10] = Tmax in Balb/c mouse at 4 mg/kg, po; format: ADME, organism-based; conditions: in vivo
# Mus musculus = assay: Suppression of ear thickness in C57BL/6 mouse model of IL-23 induced acanthosis model of psoriasis at 5 to 20 mg/kg, po BID for 10 days measured every other day; format: functional, organism-based; conditions: dose 5-20 mg/kg, time 10.0 day
# Cytochrome P450 2C9, sequence (P11712 whole entry): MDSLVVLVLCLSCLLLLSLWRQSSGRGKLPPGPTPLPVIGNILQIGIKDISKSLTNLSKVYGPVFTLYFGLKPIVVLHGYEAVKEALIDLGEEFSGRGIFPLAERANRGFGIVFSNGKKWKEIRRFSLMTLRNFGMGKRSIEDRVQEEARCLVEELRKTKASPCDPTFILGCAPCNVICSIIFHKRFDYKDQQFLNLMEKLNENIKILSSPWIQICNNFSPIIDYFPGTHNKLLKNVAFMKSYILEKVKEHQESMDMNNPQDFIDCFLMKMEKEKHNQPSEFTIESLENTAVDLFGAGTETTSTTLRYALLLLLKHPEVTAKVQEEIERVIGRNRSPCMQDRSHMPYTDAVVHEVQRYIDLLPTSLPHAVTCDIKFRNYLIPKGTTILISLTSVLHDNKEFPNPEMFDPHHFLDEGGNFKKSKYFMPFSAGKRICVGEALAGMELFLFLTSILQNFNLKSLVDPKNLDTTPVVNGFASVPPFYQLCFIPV
smiles,measurement,setting,value
C[C@@](O)(CS(C)(=O)=O)C(=O)N[C@@H]1CC[C@@]2(S(=O)(=O)c3ccc(F)cc3)c3ccc(C(F)(C(F)(F)F)C(F)(F)F)nc3CC[C@@H]12,Tmax,[1],7 h
same,inhibition in vivo at 5 mg/kg,[2],57.5%
same,IC50,Cytochrome P450 2C9,> 20 µM
same,clearance,[3],0.22 mL/min/kg
same,AUC,[4],44.9 µM·h
same,remaining at 10 min,[5],89%
same,fraction unbound,[6],0.022
same,AUC,[7],9 µM·h
same,bioavailability,[8],73%
same,EC50,[9],> 10 µM
same,Tmax,[10],2 h
same,Activity,Mus musculus,Dose-dependent effect
